What was measured:
[1] = Solubility in aqueous buffers of varying pH; format: physicochemical; details: for solubility: ambient temperature, compound 1 as acetate salt
Method: The solubility of compound 1 (acetate salt) was measured in aqueous buffers of varying pH to assess this compound's suitability for formulation in an aqueous carrier for administration by injection (e.g., intravenous or intramuscular injection).

Aspergillus spp. = assay: MEC and MIC values versus Aspergillus spp.; format: cell-based; details: 48 h; presence and absence of 50% human serum
Method: MEC and MIC values (μg/mL) of anidulafungin, caspofungin, amphotericin B, compound 1, and compound 16 against various Aspergillus species in the presence and absence of 50% human serum were obtained as follows.
Test organisms were obtained from the American Type Culture Collection (Manassas, Va.). The isolates were maintained at −80° C., then thawed and sub-cultured prior to testing. […]
Standardized inoculum of Aspergillus was prepared per CLSI methods. […] After a short time to allow the heavy particles to settle out, a small quantity of the supernatant was dispensed into RPMI and the suspension adjusted to equal 0.5 McFarland turbidity. […]
Plates were covered with a lid, placed in plastic bags, and incubated at 35° C. The Aspergillus plates were incubated for 48 h before reading. […]
Both an MIC and Minimal Effective Concentration (MEC) value was recorded. […]

[2] = Solubility in non-aqueous solvents; format: physicochemical; details: organic solvent or mixture, compound 1 as acetate salt
Method: The solubility of compound 1 (acetate salt) was also measured in non-aqueous solvents to assess this compound's suitability for formulation in non-aqueous carriers.

Structure (SMILES)	solubility ([1]; aqueous buffer, pH 3 (0.01M formate buffer))	solubility ([1]; aqueous buffer, pH 4.6 (0.1M acetate buffer))	solubility ([1]; aqueous buffer, pH 5.6 (0.1M acetate buffer))	solubility ([1]; aqueous buffer, pH 7.4 (0.1M phosphate buffer))	solubility ([1]; aqueous buffer, pH 8.5 (0.01M TRIS buffer))	aqueous solubility compared with anidulafungin (in words) ([1]; over a broad pH range)	solubility ([1]; saline or isotonic, 0.9% saline)	solubility ([1]; simulated gastric fluid, pH 1 (0.1M HCl))	activity against Aspergillus strains relative to anidulafungin (MEC and MIC) (Aspergillus spp.)	solubility ([2]; Ethanol (EtOH))	solubility ([2]; Glycerol)	solubility ([2]; PEG400)	solubility ([2]; Propylene glycol(PG))
CCCCCOc1ccc(-c2ccc(-c3ccc(C(=O)N[C@H]4C[C@@H](O)C(OCC[N+](C)(C)C)NC(=O)C5[C@@H](O)[C@@H](C)CN5C(=O)C([C@@H](C)O)NC(=O)C([C@H](O)[C@@H](O)c5ccc(O)cc5)NC(=O)C5C[C@@H](O)CN5C(=O)C([C@@H](C)O)NC4=O)cc3)cc2)cc1 (some centres unmarked) [compound 1]	> 15 mg/mL	> 15 mg/mL	> 15 mg/mL	0.05 mg/mL	> 15 mg/mL	dramatically greater aqueous solubility than anidulafungin	4.6 mg/mL	> 15 mg/mL	retain their activity	> 13.7 mg/mL	> 19.4 mg/mL	> 34.1 mg/mL	> 18.4 mg/mL
CCCCCOc1ccc(-c2ccc(-c3ccc(C(=O)N[C@H]4C[C@@H](O)C(NCC[N+](C)(C)C)NC(=O)C5[C@@H](O)[C@@H](C)CN5C(=O)C([C@@H](C)O)NC(=O)C([C@H](O)[C@@H](O)c5ccc(O)cc5)NC(=O)C5C[C@@H](O)CC5C(=O)C([C@@H](C)O)NC4=O)cc3)cc2)cc1 (some centres unmarked) [compound 16]	–	–	–	–	–	–	–	–	retain their activity	–	–	–	–
